Biological target: T1, 5-hydroxytryptamine receptor 2C (Rattus norvegicus, UniProt P08909)
T1 sequence (P08909 whole entry): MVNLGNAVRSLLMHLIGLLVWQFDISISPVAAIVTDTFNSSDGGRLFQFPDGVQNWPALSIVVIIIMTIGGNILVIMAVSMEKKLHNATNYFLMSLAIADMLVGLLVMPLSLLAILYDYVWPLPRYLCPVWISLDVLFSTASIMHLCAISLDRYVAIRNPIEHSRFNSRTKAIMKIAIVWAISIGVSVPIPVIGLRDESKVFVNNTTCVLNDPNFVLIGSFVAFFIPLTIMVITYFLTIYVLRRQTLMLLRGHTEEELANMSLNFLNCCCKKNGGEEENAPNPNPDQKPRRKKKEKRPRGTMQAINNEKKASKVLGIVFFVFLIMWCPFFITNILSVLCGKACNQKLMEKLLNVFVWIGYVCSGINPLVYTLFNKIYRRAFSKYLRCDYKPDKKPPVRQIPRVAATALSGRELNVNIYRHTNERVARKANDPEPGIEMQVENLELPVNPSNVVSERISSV

Ki | Structure (SMILES)
100 nM | CN(C)CCCN1c2ccccc2CCc2ccccc21
30 nM | O=C(c1ccc(F)cc1)C1CCN(CCn2c(=O)[nH]c3ccccc3c2=O)CC1 [3-(2-{4-[(4-fluorophenyl)carbonyl]piperidin-1-yl}ethyl)-1,2,3,4-tetrahydroquinazoline-2,4-dione]
> 10000 nM | CC1(C)CC(=O)N(CCCCN2CCN(c3ncccn3)CC2)C(=O)C1 [4,4-Dimethyl-1-[4-(4-pyrimidin-2-yl-piperazin-1-yl)-butyl]-piperidine-2,6-dione]
3120 nM | CN(C)CCC(c1ccc(Cl)cc1)c1ccccn1 (centres undefined) [clorfeniramina]
